Assay results taken from patent US20020183384A1, “Methods of treating nuclear factor-kappa B mediated diseases and disorders” (priority 2001, published 2002).

The compounds below were run on NF-κB mediated transcription (assay: NF-κB driven β-lactamase reporter assay in ECV-304 NF-κB.βlaZ cells (AURORA CCF2 fluorescence)). Conditions: 10 μM compound; ECV-304 NF-κB.βlaZ cells stimulated with 10 ng/mL TNF-α or 100 pg/mL IL-1β, 6 hours at 37° C.; inhibition of maximum blue/green ratio.
Type: cell-based, human
Outline: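 ECV-304 cells (clone 1E8) stably carrying a β-lactamase reporter driven by 5 HIV-1 NF-κB sites, plated in M-199 with 2% FBS, compound at 10 μM final. CCF2 read at 395 nm excitation, blue 460 nm/green 530 nm emission ratio; IC50 from dose-response curve.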

Row | SMILES | Percent Inhibition at 10 μM
1 | CC(C)c1cc(C(C)C)c(OC(=O)NS(=O)(=O)Oc2c(C(C)C)cc(C(C)C)cc2C(C)C)c(C(C)C)c1 [Example 126, Carbamic acid, [[2,4,6-tris(1-methylethyl)phenoxy]sulfonyl]-,2,4,6-tris(1-methylethyl)phenyl ester] | 10.02%
2 | CC(C)c1cc(C(C)C)c(OS(=O)(=O)NC(=O)Oc2c(C(C)(C)C)cc(C(C)(C)C)cc2C(C)(C)C)c(C(C)C)c1 [Example 127, Carbamic acid, [[2,4,6-bis(1-methylethyl)phenoxy]sulfonyl]-, 2,4,6-tris(1,1-dimethylethyl)phenyl ester] | 74.01%
3 | CC(C)c1cccc(C(C)C)c1OS(=O)(=O)NC(=O)OC1C2CC3CC(C2)CC1C3 (stereo not drawn) [Example 131, Carbamic acid, [[2,6-bis(1-methylethyl)phenoxy]sulfonyl]-, tricyclo[3.1.1.1^3,7]-dec-2-yl ester] | 33.39%
4 | CC(C)c1cc(-c2cc(C(C)C)c(OC(=O)NS(=O)(=O)Oc3c(C(C)C)cccc3C(C)C)c(C(C)C)c2)cc(C(C)C)c1OC(=O)NS(=O)(=O)Oc1c(C(C)C)cccc1C(C)C [Example 134, Carbamic acid, [[2,6-bis(1-methylethyl)phenoxy]sulfonyl]-, 3,3′,5,5′-tetrakis(1-methylethyl) [1,1′-biphenyl]-4,4′-diyl ester] | 18.39%

Same assay, conditions: Homo sapiens, ECV-304, 6 h, 10 μM compound; ECV-304 NF-κB.βlaZ cells stimulated with 10 ng/mL TNF-α or 100 pg/mL IL-1β, 6 hours at 37° C.; inhibition of maximum blue/green ratio; read-out: Percent Inhibition at 10 μM

Row | SMILES | inhibition at 10 µM
5 | CC[C@H](CC[C@@H](C)[C@H]1CC[C@H]2[C@@H]3CCC4C[C@H](OC(=O)NS(=O)(=O)Oc5c(C(C)C)cccc5C(C)C)CC[C@]4(C)[C@H]3CC[C@]12C)C(C)C (stereo partly drawn) [Example 121, Stigmastan-3-ol, [[2,6-bis(1-methylethyl)phenoxy]sulfonyl]-carbamate, (3α)-] | < 10%
6 | CC(C)c1cccc(C(C)C)c1CC(=O)NS(=O)(=O)Oc1c(C(C)C)cccc1C(C)C [Example 122, Sulfamic acid, [[2,6-bis(1-methylethyl)phenyl]acetyl]-, 2,6-bis(1-methylethyl)-phenyl ester] | 65.3%
7 | CC(C)c1cccc(C(C)C)c1OS(=O)(=O)NC(=O)OC1CCCCC1 [Example 133, Carbamic acid, [[2,6-bis(1-methylethyl)phenoxy]sulfonyl]-, cyclohexyl ester] | < 10%
8 | CC(C)c1cccc(C(C)C)c1OS(=O)(=O)NC(=O)OC12CC3CC(CC(C3)C1)C2 [Example 136, Carbamic acid, [[2,6-bis(1-methylethyl)phenoxy]sulfonyl]-, tricyclo[3.3.1.1^3,7]-dec-1-yl ester] | < 10%
9 | CC1CCC(C(C)C)C(OC(=O)NS(=O)(=O)Oc2c(C(C)C)cccc2C(C)C)C1 (stereo not drawn) [Example 138, Carbamic acid, [[2,6-bis(1-methylethyl)phenoxy]sulfonyl]-, 5-methyl-2-(1-methylethyl)cyclohexyl ester] | 66.2%
10 | CC(C)c1cccc(C(C)C)c1OS(=O)(=O)NC(=O)Sc1c(C(C)C)cccc1C(C)C [Example 139, Carbamothioic acid, [[2,6-bis(1-methylethyl)phenoxy]sulfonyl]-, S-[2,6-bis(1-methylethyl)phenyl] ester] | 65.5%
11 | CCc1cccc(CC)c1COC(=O)NS(=O)(=O)Oc1c(C(C)C)cccc1C(C)C [Example 140, Carbamic acid, [[2,6-bis(1-methylethyl)phenoxy]sulfonyl]-, (2,6-diethylphenyl)methyl ester] | 38.7%
12 | CC(C)c1cccc(C(C)C)c1OS(=O)(=O)NC(=O)OC1[C@H](C(C)C)CCC[C@H]1C(C)C [Example 142, Carbamic acid, [[2,6-bis(1-methylethyl)phenoxy]sulfonyl]-, (2S,6S)-2,6-bis(1-methylethyl)cyclohexyl ester] | 53.9%
13 | CC(C)c1cccc(C(C)C)c1OS(=O)(=O)NC(=O)C1CC1c1ccccc1 (stereo not drawn) [Example 144, (2-Phenyl-cyclopropanecarbonyl)-sulfamic acid 2,6-diisopropyl-phenyl ester] | 16.2%
14 | COc1ccc(OC)c(CC(=O)NS(=O)(=O)Oc2c(C(C)C)cccc2C(C)C)c1 [Example 145, [(2,5-Dimethoxy-phenyl)-acetyl]-sulfamic acid 2,6-diisopropyl-phenyl ester] | < 10%
15 | Cc1cc(C)c(CC(=O)NS(=O)(=O)Oc2c(C(C)C)cccc2C(C)C)c(C)c1 [Example 146, [(2,4,6-Trimethyl-phenyl)-acetyl]-sulfamic acid 2,6-diisopropyl-phenyl ester] | 28.3%
16 | COc1cc(OC)c(CC(=O)NS(=O)(=O)Oc2c(C(C)C)cccc2C(C)C)c(OC)c1 [Example 147, [(2,4,6-Trimethoxy-phenyl)-acetyl]-sulfamic acid 2,6-diisopropyl-phenyl ester] | < 10%
17 | CC(C)c1cccc(C(C)C)c1OS(=O)(=O)NC(=O)Cc1cccs1 [Example 148, (Thiophen-2-yl-acetyl)-sulfamic acid 2,6-diisopropyl-phenyl ester] | < 10%
18 | CC(C)c1cccc(C(C)C)c1OS(=O)(=O)NC(=O)Cc1ccsc1 [Example 149, (Thiophen-3-yl-acetyl)-sulfamic acid 2,6-diisopropyl-phenyl ester] | < 10%

Same assay, conditions: Homo sapiens; 10 μM compound; ECV-304 NF-κB.βlaZ cells stimulated with 10 ng/mL TNF-α or 100 pg/mL IL-1β, 6 hours at 37° C.; inhibition of maximum blue/green ratio; read-out: Percent Inhibition at 10 μM

Row | SMILES | inhibition at 10 µM
19 | COc1cc(C(C)C)c(OC(=O)NS(=O)(=O)Oc2c(C(C)C)cccc2C(C)C)c(C(C)C)c1 [Example 123, Carbamic acid, [[2,6-bis(1-methylethyl)phenoxy]sulfonyl]-, 4-methoxy-2,6-bis(1-methylethyl)phenyl ester] | < 10%
20 | CC(C)c1cc(C(C)C)c(OC(=O)NS(=O)(=O)Oc2c(C(C)C)cccc2C(C)C)c(C(C)C)c1 [Example 124, Carbamic acid, [[2,6-bis(1-methylethyl)phenoxy]sulfonyl]-, 2,4,6-tris(1-methylethyl)phenyl ester] | 11.3%
21 | CC(C)c1cc(C(C)C)c(OS(=O)(=O)NC(=O)Oc2c(C(C)C)cccc2C(C)C)c(C(C)C)c1 [Example 125, Carbamic acid, [[2,4,6-tris(1-methylethyl)phenoxy]sulfonyl]-, 2,6-bis(1-methylethyl)phenyl ester] | 11%
22 | CC(C)c1cccc(C(C)C)c1OS(=O)(=O)NC(=O)Oc1c(C(C)(C)C)cc(SSc2cc(C(C)(C)C)c(O)c(C(C)(C)C)c2)cc1C(C)(C)C [Example 128, Carbamic acid, [[2,6-bis(1-methylethyl)phenoxy]sulfonyl]-, 4-[[3,5-bis(1,1-dimethylethyl)-4-hydroxyphenyl]dithio]-2,6-bis(1,1-dimethylethyl)phenyl ester] | < 10%
23 | CC(C)c1ccc(OC(=O)NS(=O)(=O)Oc2c(C(C)C)cccc2C(C)C)c(C(C)C)c1 [Example 129, Carbamic acid, [[2,6-bis(1-methylethyl)phenoxy]sulfonyl]-, 2,4-bis(1-methylethyl)phenyl ester] | < 10%
24 | CC(C)c1cc(CN(C)C)cc(C(C)C)c1OC(=O)NS(=O)(=O)Oc1c(C(C)C)cccc1C(C)C [Example 130, Carbamic acid, [[2,6-bis(1-methylethyl)phenoxy]sulfonyl]-, 4-[(dimethylamino)-methyl]-2,6-bis(1-methylethyl)phenyl ester] | < 10%
25 | CC(C)c1cc(O)cc(C(C)C)c1OC(=O)NS(=O)(=O)Oc1c(C(C)C)cccc1C(C)C [Example 132, Carbamic acid, [[2,6-bis(1-methylethyl)phenoxy]sulfonyl]-, 4-hydroxy-2,6-bis(1-methylethyl)phenyl ester] | < 10%
26 | CC(C)c1cccc(C(C)C)c1OC(=O)NS(=O)(=O)Oc1c(C(C)C)cc(O)cc1C(C)C [Example 135, Carbamic acid, [[4-hydroxy-2,6-bis(1-methylethyl)phenoxy]sulfonyl]-, 2,6-bis(1-methylethyl)phenyl ester] | < 10%
27 | Cc1cccc(C(C)(C)C)c1OC(=O)NS(=O)(=O)Oc1c(C(C)C)cccc1C(C)C [Example 137, Carbamic acid, [[2,6-bis(1-methylethyl)phenoxy]sulfonyl]-, 2-(1,1-dimethylethyl)-6-methylphenyl ester] | < 10%
28 | CC(C)c1cccc(C(C)C)c1OC(=O)NS(=O)(=O)NC(=O)Oc1c(C(C)C)cccc1C(C)C [Example 141, Carbamic acid, sulfonylbis-, bis[2,6-bis(1-methylethyl)phenyl] ester] | < 10%
29 | CC(C)c1cc(C(C)(C)C)cc(C(C)C)c1OC(=O)NS(=O)(=O)Oc1c(C(C)C)cccc1C(C)C [Example 143, Carbamic acid, [[2,6-bis(1-methylethyl)phenoxy]sulfonyl]-, 4-(1,1-dimethylethyl)-2,6-bis(1-methylethyl)phenyl ester] | 65.8%
30 | CC(C)c1cccc(C(C)C)c1OS(=O)(=O)NC(=O)Oc1ccc(F)cc1 [Example 150, Carbamic acid, [[2,6-bis(1-methylethyl)phenoxy]sulfonyl]-, 4-fluorophenyl ester] | < 10%
31 | CC(C)c1cccc(C(C)C)c1OS(=O)(=O)NC(=O)Oc1ccc(F)cc1F [Example 151, Carbamic acid, [[2,6-bis(1-methylethyl)phenoxy]sulfonyl]-, 2,4-difluorophenyl ester] | < 10%
32 | CC(C)c1cccc(C(C)C)c1OS(=O)(=O)NC(=O)Oc1c(F)c(F)c(F)c(F)c1F [Example 152, Carbamic acid, [[2,6-bis(1-methylethyl)phenoxy]sulfonyl]-, pentafluorophenyl ester] | < 10%
33 | CC(C)c1cccc(C(C)C)c1OS(=O)(=O)NC(=O)Oc1c(F)cccc1F [Example 153, Carbamic acid, [[2,6-bis(1-methylethyl)phenoxy]sulfonyl]-, 2,6-difluorophenyl ester] | < 10%
